What is called melting point is the temperature, or range, at which the solid turns liquid.

Data on two molecules can be found in patent publication US8609836B2, “4-aryl-2-anilino-pyrimidines” (Janssen Pharmaceutica NV, priority 2008, dated 2013).

Some results are limits rather than exact numbers.

The target in one series is CDK1/CyclinB (h) (Homo sapiens, UniProt P06493). Put plainly: CDK1/CyclinB human kinase inhibition, Invitrogen's FRET assay (Z'lyte). As to conditions: read-out: CDK1 pIC50 (converted). It counts as biochemical. The method, boiled down:
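Read-out is the 460 nm/538 nm emission ratio (390 nm excitation) after a 60 min protease development step. Before that, 10 μM ATP and 2 μM Z'lyte Ser/Thr peptide 12 react 60 min at room temperature with 0.2 μg/ml human CDK1/CyclinB in Hepes pH 7.5 containing MgCl2, EGTA and Brij-35.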

The test system of a further series is U87-MG. As to the kind of experiment: Cellular proliferation assay (Alamar blue), U87-MG. As to conditions: Homo sapiens, U-87 MG; 10% FCS; 72 hours with compound; Alamar blue 6 h; read-out: U87-MG (cellular proliferation assay, Table 4) (converted). Type of series: cell-based. An outline of the steps: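 Alamar blue fluorescence (544/590 nm) measured viable cells after 72 h compound exposure; dye incubation 4 h (HCT-116), 6 h (U87-MG) or 24 h (A2780, MDA-MB-231). Cells pre-seeded 24 h, grown in 10% FCS, 37° C, 5% CO2; effect expressed relative to control cells.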
(In general: The colour change of resazurin is a common sign of viable cells or microbes.)

The next series has as its target PLK1 T210D (h) (Homo sapiens, UniProt P53350, T210D). As to the kind of experiment: PLK1 human kinase inhibition, SPA. As to conditions: read-out: PLK1 pIC50 (converted). Type of series: biochemical. The method, boiled down: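 Kinase incubated 40 min at room temperature with 0.1 μM ATP (2 nM [γ-33P]ATP tracer), 2 μM biotinylated peptide, pH 8.0 Hepes buffer with 2 mM MnCl2 and 1 mM DTT; enzyme at 0.125 ng/ml. Stopped with EDTA; 33P-peptide bound to streptavidin scintillant beads and imaged.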

Chain of CDK1/CyclinB (h) (P06493 whole entry): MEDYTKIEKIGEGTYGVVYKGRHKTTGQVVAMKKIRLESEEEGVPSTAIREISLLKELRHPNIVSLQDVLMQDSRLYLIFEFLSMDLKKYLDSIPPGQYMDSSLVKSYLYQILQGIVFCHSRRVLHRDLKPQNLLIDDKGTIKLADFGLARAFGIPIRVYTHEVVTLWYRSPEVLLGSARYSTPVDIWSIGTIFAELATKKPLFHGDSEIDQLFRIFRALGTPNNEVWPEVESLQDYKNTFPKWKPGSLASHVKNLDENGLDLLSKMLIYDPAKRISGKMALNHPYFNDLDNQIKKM
Chain of CDK1/CyclinB (h) (P14635 whole entry partner): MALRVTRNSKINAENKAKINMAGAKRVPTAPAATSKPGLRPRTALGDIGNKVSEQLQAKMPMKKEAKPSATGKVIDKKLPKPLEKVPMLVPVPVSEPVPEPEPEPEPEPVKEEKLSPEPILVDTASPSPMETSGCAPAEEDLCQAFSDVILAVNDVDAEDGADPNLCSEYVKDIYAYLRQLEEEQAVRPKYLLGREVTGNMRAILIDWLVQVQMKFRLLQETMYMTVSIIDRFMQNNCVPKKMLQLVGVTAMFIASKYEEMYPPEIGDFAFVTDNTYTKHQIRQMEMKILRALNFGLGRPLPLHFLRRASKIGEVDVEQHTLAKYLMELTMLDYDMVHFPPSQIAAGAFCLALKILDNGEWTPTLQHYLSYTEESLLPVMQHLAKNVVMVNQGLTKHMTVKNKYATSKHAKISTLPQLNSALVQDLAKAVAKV
Chain of PLK1 T210D (h) (P53350 whole entry T210D): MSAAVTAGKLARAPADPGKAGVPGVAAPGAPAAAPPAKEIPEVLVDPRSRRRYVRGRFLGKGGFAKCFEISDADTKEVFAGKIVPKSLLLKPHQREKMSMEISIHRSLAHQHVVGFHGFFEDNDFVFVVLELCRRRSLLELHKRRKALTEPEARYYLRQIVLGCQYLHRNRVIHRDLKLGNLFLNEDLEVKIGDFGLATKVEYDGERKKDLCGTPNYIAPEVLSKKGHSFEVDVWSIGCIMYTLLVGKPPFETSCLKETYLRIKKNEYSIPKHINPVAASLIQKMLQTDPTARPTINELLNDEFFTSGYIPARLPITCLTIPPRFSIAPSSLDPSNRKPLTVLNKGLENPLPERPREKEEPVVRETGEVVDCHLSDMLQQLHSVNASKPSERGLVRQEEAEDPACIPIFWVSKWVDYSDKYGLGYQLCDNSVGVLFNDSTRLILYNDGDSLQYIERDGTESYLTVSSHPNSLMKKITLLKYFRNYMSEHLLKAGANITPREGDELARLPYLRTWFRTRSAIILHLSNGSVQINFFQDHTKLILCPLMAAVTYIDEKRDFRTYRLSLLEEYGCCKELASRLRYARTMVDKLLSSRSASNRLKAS

On to `O=C1CN2CCN(CC2)Cc2cccc(c2)Nc2nccc(n2)-c2ccnc(c2)CCCN1` [Compound 21], for which the melting point fell in the range of 243.2 to 244.3 °C. The IC50 at CDK1/CyclinB (h) was 0.105 µM. Further, in the series with U87-MG, the IC50 is 2.82 µM. Moreover, the IC50 on PLK1 T210D (h) is over 10 µM.

In turn, `O=C1NCCCc2cc(ccn2)-c2ccnc(n2)Nc2cccc(c2)CN[C@H]1CO` [Compound 19] had a melting point of 253.6 to 254.9 °C. Moreover, on CDK1/CyclinB (h), the IC50 is 0.0562 µM. Further, the IC50 in the series on U87-MG was 1.07 µM. Besides, the IC50 on PLK1 T210D (h) is over 10 µM.
